We go through one compound from US20060234278A1, “Sequences used to identify if a female mammal comprises a mutation in the alpha-fetoprotein sequence(S) or a partial or total deletion of the alpha-fetoprotein sequence(S)” (priority 1999, published 2006).

What all share (type): in vivo, mouse
The subject of experiment [1] is Ucp1, Isp2, Egr1, Gnrhr expression in the pituitary. The experiment can be described thus: Real time PCR gene expression in pituitary of prenatally ATD-treated AFP KO females. The settings on record: prenatal ATD-treated AFP KO females (n=7). The method, then: (§1) Females heterozygous for the Afp tm2Ibmm allele (CD1 strain, 8th backcross level) were mated with Afp tm2Ibmm homozygous males and housed under the conditions described above. They then received a daily subcutaneous injection in the neck of 4 mg of the aromatase inhibitor ATD (1, 4, 6-androstatrien-3,17-dione, Steraloids, Newport, R.I.) dissolved in propylene glycol, from the 13.5th day of gestation (day 0.5 is defined as the day of vaginal plug detection) until the end of gestation. Controls were injected with propylene glycol only. Pups were born naturally or retrieved by Caesarian operation on embryonic day 20.5. Blood from the mothers was taken from the hart and estradiol levels were measured by classical RIA assay. Fertility of female pups was tested at the age of 2-3 months. In parallel, sisters of the female pups tested were dissected at the age of 3 months and total RNA was extracted from the pituitary and the hypothalamus as described above. cDNA was obtained using the TaqMan Reverse Transcription Reagents kit (Applied Biosystems) and real time PCR was performed on the 7300 Real Time PCR System (Applied Biosystems) with the Platinum Quantitative PCR SuperMix-UDG kit (Invitrogen) and the TaqMan Gene Expression Assays (Applied Biosystems) for pituitary genes except for Egr1. […]
(In general: Real-time PCR tracks product formation cycle by cycle.)

Experiment [2] deals with AFP KO females. Nature of the experiment: Fertility of AFP KO female pups after prenatal ATD treatment. The method, then:
as §1

Experiment [3] has as its system Gnrh2 gene expression in the hypothalamus. The experiment can be described thus: Real time PCR Gnrh2 gene expression in hypothalamus of prenatally ATD-treated AFP KO females. The settings on record: prenatal ATD-treated AFP KO mice (n=7), normalized to Hprt. The method, then:
as §1

The test system of experiment [4] is estrogen synthesis. Nature of the experiment: Serum estradiol levels of ATD-treated gestating females by RIA assay. The settings on record: heterozygous gestating females, daily s.c. 4 mg ATD from day 13.5 of gestation; 10 pg/ml is the RIA detection limit. The method, then:
as §1

Each structure is given as a SMILES string. A value given as a limit tells only on which side of the number the result lay.

Consider `C[C@]12C=CC(=O)C=C1C=C[C@@H]1[C@@H]2CC[C@]2(C)C(=O)CC[C@@H]12` [ATD, 1,4,6-androstatrien-3,17-dione], for which, in experiment [1] (normalized to Hprt, p=0.044), the “Pituitary gene expression levels vs untreated KO females” value was “statistically different from those of the untreated KO females”. Moreover, the “Pituitary gene expression levels vs heterozygous untreated females” value in experiment [1] (p=0.508, except Isp2 (p=0.014)) was “not statistically different from those of the heterozygous, untreated females”. Besides, the “Fertility of female pups” value in experiment [2] (AFP KO and heterozygous pups from ATD-injected mothers, tested at 2-3 months, 8 KO and 17 heterozygous pups tested) is reported as “fertile”. In addition, the Litter size entry in experiment [2] (litters born to prenatally ATD-treated AFP KO and heterozygous females) is “normal size”. In experiment [3], the “Gnrh2 expression level in hypothalamus” value is given as “not increased”. For the same compound, the Serum estradiol levels in experiment [4] was below 10 pg/mL.
